Experimental data taken from patent US9453028B2, “Protein kinase C inhibitors and uses thereof” (Rigel Pharmaceuticals, Inc., priority 2009, dated 2016).

Legend:
[1] = target: T1, PKC-beta (Homo sapiens, UniProt P05771); test: Protein Kinase C assay (fluorescence polarization), PKC-beta; type: biochemical
T1 construct: purchased Oxford Biomedical Research
Procedure: (§1) The inhibition of PKC activity was measured by monitoring the production of phosphorylated peptide by fluorescence polarization at different concentrations of the inhibitor. Reactions were carried out in 96-well plate format with a total volume of 20 μL containing 20 mM HEPES, pH 7.4, 5 mM MgCl2, 0.2 mM CaCl2, 1 mM DTT, 0.02% Brij-35, 0.1 mg/mL phosphatidylserine, 0.02 mg/mL dioleoyl-sn-glycerol and 5 μM each of ATP and the peptide substrate. Compounds were first diluted serially in DMSO and then transferred to a solution containing the above concentrations of HEPES, MgCl2, CaCl2, DTT, and Brij-35 to yield 5× compound solutions in 2% DMSO, which was then added to the reaction solution. Reactions were initiated by the addition of PKC at a typical concentration as described in the table below, and then allowed to incubate at room temperature for 20 minutes. At the end of this time, a combination of quench (EDTA) and detection (peptide tracer and antibody) reagents was added using the protocol of Invitrogen P2748 (Carlsbad, Calif.), a Protein Kinase C Fluorescence polarization Assay Kit. After a 30 minute period of incubation, the amount of phosphorylated peptide generated was measured by fluorescence polarization (Ex=485 nm, Em=535 nm) using a Tecan Polarian instrument (Switzerland).
Human recombinant PKC β1 is obtained from Oxford Biomedical Research and is used under the assay conditions as described under Section A.1 above.
(§2) Several subject compounds were tested according to procedures in the “Characterization of Functional Properties” section. PKC kinase activity was measured using the procedure Section A.1 (Protein Kinase C assay) with the appropriate isoform. The whole cell assay was run according to the procedure in Section A.2 (IL-2 ELISA, Human primary T cell, anti-CD3+CD28+ Assays). […] Blank entries indicate that the IC50 was not determined.

[2] = tested on: Human primary T cell; test: IL-2 ELISA, human primary T cell, anti-CD3+CD28+ whole cell assay; type: cell-based; conditions: IL-2 by ELISA, human primary T cells stimulated with anti-CD3+CD28
Procedure: 2. IL-2 ELISA, Human Primary T Cell, Anti-CD3+CD28+ Assays
Human primary T cells were prepared as follows. Whole blood was obtained from a healthy volunteer, mixed 1:1 with PBS, layered on to Ficoll Hypaque (Amersham Pharmacia Biotech, Piscataway, N.J., Catalog #17-1440-03) in 2:1 blood/PBS:ficoll ratio and centrifuged for 30 minutes at 4° C. at 1750 rpm. The cells at the serum:ficoll interface were recovered and washed twice with 5 volumes of PBS. These freshly isolated human peripheral blood mononuclear cells were cultured in Yssel's medium containing 40 U/mL IL2 in a flask pre-coated with 1 μg/mL αCD3 and 5 μg/mL αCD28 (Anti-Human CD3, BD Pharmingen Catalog #555336, Anti-Human CD28, Beckman Coulter Catalog #1M1376). The cells were stimulated for 3-4 days, then transferred to a fresh flask and maintained in RPMI (RPMI-1640 with L-Glutamine; Mediatech, Inc., Herndon Va., cat. #10-040-CM) with 10% FBS and 40 U/mL IL-2. The primary T-cells were then washed twice with PBS to remove the IL-2.
Human primary T cells (100,000 cells per well) were pre-incubated with or without test compound in Yssel's medium for 1 hr at 37° C. Cells were then stimulated by transferring them to round-bottom 96-well plates pre-coated with 1 μg/ml αCD3 and 5 μg/ml αCD28. For counter assay, cells were instead stimulated by adding 8× stock solutions of PMA and ionomycin in Yssels (for final concentrations of 0.5 ng/ml PMA and 0.1 μM ionomycin, both from Calbiochem). Cells were incubated at 37° C. for 24 hours before 100 μL supernatants were harvested for quantification of IL-2 by ELISA using Human IL-2 Duoset ELISA Kit from R and D Systems, Cat. # DY202E.
as §2

[3] = target: T2, PKC-alpha (Homo sapiens, UniProt P17252); test: Protein Kinase C assay (fluorescence polarization), PKC-alpha; type: biochemical
T2 construct: purchased Oxford Biomedical Research
Procedure: as §1
Human recombinant PKC α is obtained from Oxford Biomedical Research and is used under the assay conditions as described under Section A.1 above.
as §2

[4] = target: T3, PKC-delta (Homo sapiens, UniProt Q05655); test: Protein Kinase C assay (fluorescence polarization), PKC-delta; type: biochemical
T3 construct: purchased Oxford Biomedical Research
T3 sequence (Q05655 whole entry): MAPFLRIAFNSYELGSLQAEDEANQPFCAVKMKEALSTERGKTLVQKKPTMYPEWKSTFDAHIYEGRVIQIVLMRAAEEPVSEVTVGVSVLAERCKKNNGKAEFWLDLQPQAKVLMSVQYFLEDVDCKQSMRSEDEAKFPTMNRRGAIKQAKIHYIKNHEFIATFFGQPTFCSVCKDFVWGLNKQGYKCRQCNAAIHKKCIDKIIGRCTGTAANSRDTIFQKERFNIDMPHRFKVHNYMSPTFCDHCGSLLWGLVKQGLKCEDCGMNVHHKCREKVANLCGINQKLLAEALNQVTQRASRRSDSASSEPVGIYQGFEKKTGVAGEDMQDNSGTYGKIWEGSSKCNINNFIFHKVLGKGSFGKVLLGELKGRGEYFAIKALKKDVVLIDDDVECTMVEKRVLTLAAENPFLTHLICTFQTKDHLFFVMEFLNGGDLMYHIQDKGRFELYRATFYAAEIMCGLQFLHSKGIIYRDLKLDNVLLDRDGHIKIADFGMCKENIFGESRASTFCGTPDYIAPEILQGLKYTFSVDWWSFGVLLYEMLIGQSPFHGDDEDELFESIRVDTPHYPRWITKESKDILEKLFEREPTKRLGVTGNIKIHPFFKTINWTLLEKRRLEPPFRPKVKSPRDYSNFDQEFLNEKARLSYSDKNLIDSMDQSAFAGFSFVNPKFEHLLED
Procedure: as §1
Human recombinant PKC δ is obtained from Oxford Biomedical Research and is used under the assay conditions as described under Section A.1 above.
as §2

[5] = target: T4, PKC-theta (Homo sapiens, UniProt Q04759); test: Protein Kinase C assay (fluorescence polarization), PKC-theta; type: biochemical
T4 construct: purchased Upstate Biotechnologies, Temecula, CA 14-444
T4 sequence (Q04759 whole entry): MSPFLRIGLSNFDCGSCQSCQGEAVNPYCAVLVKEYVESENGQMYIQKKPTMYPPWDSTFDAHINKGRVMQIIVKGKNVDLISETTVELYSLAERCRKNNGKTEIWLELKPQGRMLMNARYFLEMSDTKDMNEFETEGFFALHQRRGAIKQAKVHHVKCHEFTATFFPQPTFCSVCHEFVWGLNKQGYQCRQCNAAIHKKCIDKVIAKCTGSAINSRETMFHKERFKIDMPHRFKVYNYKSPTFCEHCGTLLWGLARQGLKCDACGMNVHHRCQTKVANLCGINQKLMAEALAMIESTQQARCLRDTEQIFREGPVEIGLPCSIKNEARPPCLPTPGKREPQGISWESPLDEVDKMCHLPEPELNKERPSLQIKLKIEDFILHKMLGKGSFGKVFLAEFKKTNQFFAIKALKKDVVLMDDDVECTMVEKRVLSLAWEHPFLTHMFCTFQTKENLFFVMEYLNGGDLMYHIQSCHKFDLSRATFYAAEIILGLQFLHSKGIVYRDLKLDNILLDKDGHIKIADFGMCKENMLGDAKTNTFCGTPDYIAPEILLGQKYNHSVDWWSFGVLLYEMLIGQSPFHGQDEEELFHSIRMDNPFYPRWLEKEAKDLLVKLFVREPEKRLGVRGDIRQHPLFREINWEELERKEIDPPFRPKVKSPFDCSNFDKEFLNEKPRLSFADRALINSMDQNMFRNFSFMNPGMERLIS
Procedure: as §1
Human recombinant PKC θ is used under the assay conditions as described above.
as §2

[6] = target: T5, PKC-epsilon (Homo sapiens, UniProt Q02156); test: Protein Kinase C assay (fluorescence polarization), PKC-epsilon; type: biochemical
T5 construct: purchased Upstate Biotechnologies, Temecula, CA 14-518
T5 sequence (Q02156 1-737): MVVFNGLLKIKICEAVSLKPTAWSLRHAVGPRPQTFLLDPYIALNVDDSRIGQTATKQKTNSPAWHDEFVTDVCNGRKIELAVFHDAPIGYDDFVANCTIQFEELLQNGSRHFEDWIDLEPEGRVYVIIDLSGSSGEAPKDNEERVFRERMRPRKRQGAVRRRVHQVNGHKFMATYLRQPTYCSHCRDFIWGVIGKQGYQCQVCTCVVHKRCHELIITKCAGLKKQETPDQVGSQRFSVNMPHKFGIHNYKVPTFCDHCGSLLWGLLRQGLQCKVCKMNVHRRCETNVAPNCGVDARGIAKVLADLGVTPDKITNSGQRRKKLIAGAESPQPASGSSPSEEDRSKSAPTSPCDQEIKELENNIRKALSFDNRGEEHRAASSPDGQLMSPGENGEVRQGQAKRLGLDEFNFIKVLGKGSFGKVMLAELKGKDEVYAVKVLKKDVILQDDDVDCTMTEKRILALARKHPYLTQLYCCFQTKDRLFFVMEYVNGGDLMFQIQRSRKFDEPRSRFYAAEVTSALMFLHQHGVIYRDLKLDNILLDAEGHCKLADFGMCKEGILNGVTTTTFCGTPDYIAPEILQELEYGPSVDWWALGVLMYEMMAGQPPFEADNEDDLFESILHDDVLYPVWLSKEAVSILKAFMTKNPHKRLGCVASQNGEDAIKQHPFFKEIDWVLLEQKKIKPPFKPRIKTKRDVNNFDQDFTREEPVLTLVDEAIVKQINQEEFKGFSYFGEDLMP
Procedure: as §1
Human recombinant PKC […] is obtained from Oxford Biomedical Research and is used under the assay conditions as described under Section A.1 above.
as §2

T1 sequence (P05771 whole entry): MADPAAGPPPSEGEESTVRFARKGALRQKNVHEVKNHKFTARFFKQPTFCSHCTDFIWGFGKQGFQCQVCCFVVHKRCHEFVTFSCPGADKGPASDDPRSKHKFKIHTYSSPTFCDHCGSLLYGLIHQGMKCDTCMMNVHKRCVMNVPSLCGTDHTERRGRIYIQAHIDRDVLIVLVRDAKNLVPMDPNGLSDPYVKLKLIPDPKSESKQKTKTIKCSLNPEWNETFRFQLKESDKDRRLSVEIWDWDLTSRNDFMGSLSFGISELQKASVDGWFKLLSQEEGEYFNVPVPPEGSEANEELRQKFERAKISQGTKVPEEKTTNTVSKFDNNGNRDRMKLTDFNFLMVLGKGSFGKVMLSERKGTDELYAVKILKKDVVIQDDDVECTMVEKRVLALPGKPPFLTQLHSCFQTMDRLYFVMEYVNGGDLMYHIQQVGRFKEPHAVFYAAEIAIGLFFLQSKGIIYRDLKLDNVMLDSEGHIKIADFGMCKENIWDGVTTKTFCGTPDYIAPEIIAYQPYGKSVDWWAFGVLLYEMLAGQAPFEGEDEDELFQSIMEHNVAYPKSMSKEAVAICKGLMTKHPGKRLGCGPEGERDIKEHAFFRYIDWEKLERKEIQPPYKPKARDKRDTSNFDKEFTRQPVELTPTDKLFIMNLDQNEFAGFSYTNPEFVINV

Compound | IC50 [1] | IC50 ([2]; T-cell) | IC50 [3] | IC50 [4] | IC50 [5] | IC50 [6] | IC50 [2]
CC1(C)CC(Nc2nc(Nc3ccc4c(c3)-n3nnnc3CO4)ncc2F)CC(C)(C)N1 [Compound 1-1, N2-(4H-benzo[b]tetrazolo[1,5-d][1,4]oxazin-8-yl)-5-fluoro-N4-(2,2,6,6-tetramethylpiperidin-4-yl)pyrimidine-2,4-diamine] | < 0.25 µM | < 0.25 µM | < 0.25 µM | < 0.25 µM | < 0.25 µM | < 0.25 µM | –
CN1C(C)(C)CC(Nc2nc(Nc3ccc4c(c3)-n3nnnc3CO4)ncc2F)CC1(C)C [Compound 1-2, N2-(4H-benzo[b]tetrazolo[1,5-d][1,4]oxazin-8-yl)-5-fluoro-N4-(1,2,2,6,6-pentamethylpiperidin-4-yl)pyrimidine-2,4-diamine] | < 0.25 µM | < 0.25 µM | < 0.25 µM | < 0.25 µM | < 0.25 µM | < 0.25 µM | –
CC1(C)CC(Nc2nc(Nc3ccc4c(c3)-n3nnnc3C(F)(F)O4)ncc2F)CC(C)(C)N1 [Compound 1-5, N2-(4,4-difluoro-4H-benzo[b]tetrazolo[1,5-d][1,4]oxazin-8-yl)-5-fluoro-N4-(2,2,6,6-tetramethylpiperidin-4-yl)pyrimidine-2,4-diamine] | < 0.25 µM | 0.5 to 1 µM | < 0.25 µM | < 0.25 µM | < 0.25 µM | < 0.25 µM | –
CN1C(C)(C)CC(Nc2nc(Nc3ccc4c(c3)-n3nnnc3C(F)(F)O4)ncc2F)CC1(C)C [Compound 1-6, N2-(4,4-difluoro-4H-benzo[b]tetrazolo[1,5-d][1,4]oxazin-8-yl)-5-fluoro-N4-(1,2,2,6,6-pentamethylpiperidin-4-yl)pyrimidine-2,4-diamine] | < 0.25 µM | 0.25 to 0.5 µM | < 0.25 µM | < 0.25 µM | < 0.25 µM | < 0.25 µM | –
CC1(C)CC(Nc2nc(Nc3ccc4c(c3)-n3nnnc3C(C)(C)O4)ncc2F)CC(C)(C)N1 [Compound 1-7, N2-(4,4-dimethyl-4H-benzo[b]tetrazolo[1,5-d][1,4]oxazin-8-yl)-5-fluoro-N4-(2,2,6,6-tetramethylpiperidin-4-yl)pyrimidine-2,4-diamine] | < 0.25 µM | < 0.25 µM | < 0.25 µM | < 0.25 µM | < 0.25 µM | < 0.25 µM | –
CN1C(C)(C)CC(Nc2nc(Nc3ccc4c(c3)-n3nnnc3C(C)(C)O4)ncc2F)CC1(C)C [Compound 1-8, N2-(4,4-dimethyl-4H-benzo[b]tetrazolo[1,5-d][1,4]oxazin-8-yl)-5-fluoro-N4-(1,2,2,6,6-pentamethylpiperidin-4-yl)pyrimidine-2,4-diamine] | < 0.25 µM | < 0.25 µM | < 0.25 µM | < 0.25 µM | < 0.25 µM | < 0.25 µM | –
CC1(C)CC(Nc2nc(Nc3ccc4c(c3)-n3nnnc3C3(CCC3)O4)ncc2F)CC(C)(C)N1 [Compound 1-11, N2-{2,1-Spiro-butane-4H-tetrazolo[5,1-c][1,4]benzoxazin-8-yl}-5-fluoro-N4-(2,2,6,6-tetramethylpiperidin-4-yl)-2,4-pyrimidinediamine] | < 0.25 µM | < 0.25 µM | < 0.25 µM | < 0.25 µM | < 0.25 µM | < 0.25 µM | –
CN1C(C)(C)CC(Nc2nc(Nc3ccc4c(c3)-n3nnnc3C3(CCC3)O4)ncc2F)CC1(C)C [Compound 1-12, N2-{2,1-Spiro-butane-4H-tetrazolo[5,1-c][1,4]benzoxazin-8-yl}-5-fluoro-N4-(1,2,2,6,6-pentamethylpiperidin-4-yl)-2,4-pyrimidinediamine] | < 0.25 µM | – | < 0.25 µM | < 0.25 µM | < 0.25 µM | < 0.25 µM | < 0.25 µM
CC1Oc2ccc(Nc3ncc(F)c(NC4CC(C)(C)NC(C)(C)C4)n3)cc2-n2nnnc21 (stereo not drawn) [Compound 1-17] | < 0.25 µM | < 0.25 µM | < 0.25 µM | < 0.25 µM | < 0.25 µM | < 0.25 µM | –
CC1Oc2ccc(Nc3ncc(F)c(NC4CC(C)(C)N(C)C(C)(C)C4)n3)cc2-n2nnnc21 (stereo not drawn) [Compound 1-18] | < 0.25 µM | < 0.25 µM | < 0.25 µM | < 0.25 µM | < 0.25 µM | < 0.25 µM | –
CC1(C)CC(CNc2nc(Nc3ccc4c(c3)-n3nnnc3CO4)ncc2F)C(C)(C)N1 (stereo not drawn) [Compound 2-1, N2-(4H-benzo[b]tetrazolo[1,5-d][1,4]oxazin-8-yl)-5-fluoro-N4-((2,2,5,5-tetramethylpyrrolidin-3-yl)methyl)pyrimidine-2,4-diamine] | < 0.25 µM | < 0.25 µM | < 0.25 µM | < 0.25 µM | < 0.25 µM | < 0.25 µM | –
CN1C(C)(C)CC(CNc2nc(Nc3ccc4c(c3)-n3nnnc3CO4)ncc2F)C1(C)C (stereo not drawn) [Compound 2-2, N2-(4H-benzo[b]tetrazolo[1,5-d][1,4]oxazin-8-yl)-5-fluoro-N4-((1,2,2,5,5-pentamethylpyrrolidin-3-yl)methyl)pyrimidine-2,4-diamine] | < 0.25 µM | < 0.25 µM | < 0.25 µM | < 0.25 µM | < 0.25 µM | < 0.25 µM | –
CC1C[C@@H](CNc2nc(Nc3ccc4c(c3)-n3nnnc3C(C)(C)O4)ncc2F)C(C)(C)N1 (stereo partly drawn) [Compound 2-7, N2-(4,4-dimethyl-4H-benzo[b]tetrazolo[1,5-d][1,4]oxazin-8-yl)-5-fluoro-N4-(((3S)-2,2,5-trimethylpyrrolidin-3-yl)methyl)pyrimidine-2,4-diamine] | < 0.25 µM | – | < 0.25 µM | < 0.25 µM | < 0.25 µM | < 0.25 µM | < 0.25 µM
